Patent US11478471B2, “Methods and compositions for treating diabetes, metabolic syndrome and other conditions” (priority 2005, dated 2022)
≈ marks a conversion by molar mass, not a printed value. Entries after “also recorded” stand apart in the source; their conditions may differ. Like-named read-outs stand apart in the source and are kept apart here.

What was measured:
[1] = tested on: P450 2B1, 2B2, 1A1, 2C11, 3A; conditions: read-out: IC50, progesterone 16α hydroxylase (2B1, 2B2, 1A1, 2C11, 3A); Rotstein et al. 1992; cited from earlier work
Saccharomyces cerevisiae = experiment: Antifungal MIC; assay type: cell-based; conditions: DSM01333, DSM strain 01333, 48 h
[2] = tested on: CYP7A (cholesterol 7α hydroxylase); experiment: Inhibition of CYP7A, cholesterol 7α-hydroxylase activity (Rotstein et al. 1992); conditions: assuming intrahepatic concentration approximately 20% of total plasma concentration; listed as 2R,4S enantiomer
P450 2C6 = P450 2C6 (Rattus norvegicus, UniProt P05178); conditions: Rotstein et al. 1992; read-out: IC50, progesterone 21 hydroxylase (2C6); cited from earlier work
P450 2C6, sequence (P05178 whole entry): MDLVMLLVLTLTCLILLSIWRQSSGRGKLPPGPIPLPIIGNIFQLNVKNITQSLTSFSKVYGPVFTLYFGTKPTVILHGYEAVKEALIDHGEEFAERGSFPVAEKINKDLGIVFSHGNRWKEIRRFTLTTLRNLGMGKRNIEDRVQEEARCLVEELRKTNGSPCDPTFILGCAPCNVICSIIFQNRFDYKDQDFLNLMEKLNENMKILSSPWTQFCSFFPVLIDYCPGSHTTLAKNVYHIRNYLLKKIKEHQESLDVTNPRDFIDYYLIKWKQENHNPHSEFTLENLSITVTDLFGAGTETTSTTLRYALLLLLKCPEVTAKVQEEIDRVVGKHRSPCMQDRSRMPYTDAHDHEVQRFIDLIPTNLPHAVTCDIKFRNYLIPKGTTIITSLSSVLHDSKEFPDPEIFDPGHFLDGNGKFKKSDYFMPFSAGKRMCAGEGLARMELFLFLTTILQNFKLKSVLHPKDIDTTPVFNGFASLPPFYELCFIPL

plasma corticosterone = experiment: Plasma corticosterone in rats after oral dosing (ELISA); assay type: in vivo, Sprague Dawley rats; conditions: for effect on plasma corticosterone (FIG. 1): 200 mg/kg oral, vs vehicle; for Corticosteroid Levels (mean ± SEM): 4 h after gavage
Description: To generate the results shown in FIG. 1, five groups (eight per group) of rats were used. The rats were maintained on a 14/10 hour light/dark cycle and allowed free access to food and water. Each rat was dosed (200 mg drug/kg body weight) via a gastric tube. […] All of the rats were dosed between 2.00 and 3.00 pm and were sacrificed four hours later (between 6.00 and 7.00 pm). Plasma was prepared and the concentration of corticosterone determined by an enzyme linked immuno assay (ELISA). In rats, the predominant active glucocorticoid is corticosterone; in humans, the predominant active glucucorticoid is the closely related molecule cortisol.
The rats were maintained and dosed as described above. Plasma was prepared and the concentration of corticosterone in the plasma determined by ELISA.
(§1) The rats were maintained as described above; the drugs were suspended in olive oil, and each rat was dosed once via gastric tube to achieve a dose of 200 mg/kg. All of the rats were dosed at a specific time so that all terminations occurred between 6 and 7 pm. […] Following sacrifice, plasma was prepared, and the concentration of corticosterone in the plasma was determined by ELISA. In the same plasma samples, total cholesterol levels were also determined.
In the Table, corticosterone levels (mean±SEM; ng/mL) were determined four hours after oral gavage of the indicated drug (N=10/group). There was a single control group (dosed with vehicle).
Corticosterone levels (mean±SEM; ng/mL) were determined at the indicated times after oral gavage of the indicated drug at 200 mg/kg. […] The means of the vehicle treated groups are used as the time zero control point.

Candida glabrata = experiment: Antifungal MIC; assay type: cell-based; conditions: Nakaseomyces glabratus, read-out: MIC
Candida parapsilosis = experiment: Antifungal MIC; assay type: cell-based; conditions: Lodderomyces parapsilosis, read-out: MIC
Candida tropicalis = experiment: Antifungal MIC; assay type: cell-based
Candida kefyr = experiment: Antifungal MIC; assay type: cell-based; conditions: Kluyveromyces marxianus, DSM11954; DSM strain 11954, 48 h
[3] = humans, cited from earlier work
Candida guilliermondii = experiment: Antifungal MIC; assay type: cell-based; conditions: Meyerozyma guilliermondii, DSM11947; DSM strain 11947, 48 h
P450 4A = conditions: read-out: IC50, lauric acid hydroxylase (4A); Rotstein et al. 1992; cited from earlier work
Candida albicans = experiment: Antifungal MIC; assay type: cell-based; conditions: read-out: MIC
cholesterol levels = experiment: Cholesterol levels in rats after oral dosing; assay type: in vivo, Sprague Dawley rats; conditions: single oral 200 mg/kg
Description: as §1

Cryptococcus neoformans = experiment: Antifungal MIC; assay type: cell-based
P450 3A = conditions: read-out: IC50, progesterone 6β hydroxylase (3A); Rotstein et al. 1992; cited from earlier work
Issatchenkia orientalis = experiment: Antifungal MIC; assay type: cell-based; conditions: Pichia kudriavzevii, read-out: MIC
testosterone levels = experiment: Testosterone levels in rats after oral dosing; assay type: in vivo, Sprague Dawley rats; conditions: for Testosterone levels (mean ± SEM): 4 h after gavage
Excerpt: There was a single control group (dosed with vehicle).
The means of the vehicle treated groups are used as the time zero control point.

succinate dehydrogenase = molecular target: T1, succinate dehydrogenase (Rattus norvegicus, UniProt Q920L2); conditions: read-out: in vitro IC50, succinate dehydrogenase; cited from earlier work
T1 construct: host or cells: isolated rat liver mitochondria (from the cited title)
T1 sequence (Q920L2 35-656): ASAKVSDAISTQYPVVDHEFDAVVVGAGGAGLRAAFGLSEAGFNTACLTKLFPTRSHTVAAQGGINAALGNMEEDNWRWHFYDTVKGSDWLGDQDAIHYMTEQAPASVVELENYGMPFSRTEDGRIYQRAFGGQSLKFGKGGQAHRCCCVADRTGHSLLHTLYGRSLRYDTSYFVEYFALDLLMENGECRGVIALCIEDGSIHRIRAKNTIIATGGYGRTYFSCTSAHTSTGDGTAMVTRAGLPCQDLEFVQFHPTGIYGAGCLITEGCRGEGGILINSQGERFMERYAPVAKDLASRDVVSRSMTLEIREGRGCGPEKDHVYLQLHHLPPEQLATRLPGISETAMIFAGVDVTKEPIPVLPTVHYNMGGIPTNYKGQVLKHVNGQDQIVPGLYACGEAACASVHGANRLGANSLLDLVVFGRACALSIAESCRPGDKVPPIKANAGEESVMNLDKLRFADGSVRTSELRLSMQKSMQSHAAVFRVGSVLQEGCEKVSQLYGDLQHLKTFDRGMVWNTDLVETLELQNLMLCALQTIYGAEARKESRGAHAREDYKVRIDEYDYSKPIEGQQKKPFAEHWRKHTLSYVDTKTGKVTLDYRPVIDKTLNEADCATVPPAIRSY
T1 sequence (P21913 31-282 partner): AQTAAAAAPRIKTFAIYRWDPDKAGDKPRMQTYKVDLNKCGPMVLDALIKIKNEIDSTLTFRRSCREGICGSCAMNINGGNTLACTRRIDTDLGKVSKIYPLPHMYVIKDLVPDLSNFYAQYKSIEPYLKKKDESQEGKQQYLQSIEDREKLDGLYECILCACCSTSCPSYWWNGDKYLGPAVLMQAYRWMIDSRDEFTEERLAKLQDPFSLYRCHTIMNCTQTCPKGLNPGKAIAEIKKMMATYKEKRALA
T1 sequence (Q641Z9 30-169 partner limits assumed): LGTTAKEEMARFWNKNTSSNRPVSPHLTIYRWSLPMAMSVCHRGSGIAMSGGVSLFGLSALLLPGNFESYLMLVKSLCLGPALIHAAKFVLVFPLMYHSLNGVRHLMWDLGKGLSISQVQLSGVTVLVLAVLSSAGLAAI
T1 sequence (Q6PCT8 57-159 partner): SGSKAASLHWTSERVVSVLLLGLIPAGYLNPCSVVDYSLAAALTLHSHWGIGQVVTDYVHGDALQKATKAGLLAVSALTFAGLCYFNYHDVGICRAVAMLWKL

[4] = following fifth 200 mg dose of racemic ketoconazole (every twelve hours)
[5] = following first 200 mg dose of racemic ketoconazole

## CC(=O)N1CCN(c2ccc(OC[C@H]3CO[C@](Cn4ccnc4)(c4ccc(Cl)cc4Cl)O3)cc2)CC1 [2R,4S]
[1]
  IC50: 69 µM
Saccharomyces cerevisiae
  MIC: 0.25 µg/mL (≈ 0.47 µM)
[2]
  total plasma concentration required to inhibit intrahepatic CYP7A: approximately 1 microM; also recorded: approximately 0.5 microg/mL
P450 2C6
  IC50: 11.2 µM
Plasma corticosterone; 4 h
  effect on plasma corticosterone (FIG. 1): reduce corticosterone
Plasma corticosterone; single oral 50 mg/kg
  Corticosteroid Levels (mean ± SEM): 226 ± 30.1 ng/mL
Plasma corticosterone; single oral 100 mg/kg
  Corticosteroid Levels (mean ± SEM): 196 ± 17.2 ng/mL
Plasma corticosterone; single oral 200 mg/kg, 4 h
  Corticosteroid Levels (mean ± SEM), time course: 191 ± 14 ng/mL
Plasma corticosterone; single oral 200 mg/kg
  Corticosteroid Levels (mean ± SEM): 217 ± 25.8 ng/mL
Plasma corticosterone; single oral 200 mg/kg, 8 h
  Corticosteroid Levels (mean ± SEM), time course: 206 ± 13 ng/mL
Plasma corticosterone; single oral 200 mg/kg, 12 h
  Corticosteroid Levels (mean ± SEM), time course: 175 ± 9 ng/mL
Plasma corticosterone; single oral 200 mg/kg, 16 h
  Corticosteroid Levels (mean ± SEM), time course: 171 ± 9 ng/mL
Plasma corticosterone; single oral 200 mg/kg, 20 h
  Corticosteroid Levels (mean ± SEM), time course: 169 ± 7 ng/mL
Plasma corticosterone; single oral 200 mg/kg, 24 h
  Corticosteroid Levels (mean ± SEM), time course: 182 ± 10 ng/mL
Plasma corticosterone; single oral 400 mg/kg
  Corticosteroid Levels (mean ± SEM): 192 ± 11.6 ng/mL
Plasma corticosterone; single oral 600 mg/kg
  Corticosteroid Levels (mean ± SEM): 167 ± 6.8 ng/mL
Candida glabrata; DSM11226, DSM strain 11226, 48 h
  MIC: 0.5 µg/mL (≈ 0.941 µM)
Candida glabrata; DSM11950, DSM strain 11950, 48 h
  MIC: 0.25 µg/mL (≈ 0.47 µM)
Candida parapsilosis; DSM05784, DSM strain 05784, 48 h
  MIC: 0.06 µg/mL (≈ 0.113 µM)
Candida parapsilosis; DSM11224, DSM strain 11224, 48 h
  MIC: 0.06 µg/mL (≈ 0.113 µM)
Candida tropicalis; DSM11951, 48 h
  MIC: 0.125 µg/mL (≈ 0.235 µM)
Candida tropicalis; DSM11952, DSM strain 11952, 48 h, read-out: MIC
  MIC: 4 µg/mL (≈ 7.53 µM)
Candida tropicalis; DSM11953, 48 h
  MIC: 0.125 µg/mL (≈ 0.235 µM)
Candida kefyr
  MIC: 0.03 µg/mL (≈ 0.0565 µM)
[3]; [4]
  AUC 0-12: 1543 ± 231 µg·min/mL
  Cmax: 4770 ± 550 ng/mL
  T ½: 2.63 ± 0.317 h
[3]; [5]
  AUC 0-12: 820 ± 142 µg·min/mL
  Cmax: 3400 ± 440 ng/mL
  T ½: 1.62 ± 0.13 h
Candida guilliermondii
  MIC: 0.25 µg/mL (≈ 0.47 µM)
P450 4A
  IC50: < 100 µM
Candida albicans; DSM11225, DSM strain 11225, 48 h
  MIC: < 0.015 µg/mL
Candida albicans; DSM11943, DSM strain 11943, 48 h
  MIC: < 0.015 µg/mL
Candida albicans; DSM11944, DSM strain 11944, 48 h
  MIC: < 0.015 µg/mL
Candida albicans; DSM11945, DSM strain 11945, 48 h
  MIC: 0.03 µg/mL (≈ 0.0565 µM)
Candida albicans; DSM11948, DSM strain 11948, 48 h
  MIC: < 0.015 µg/mL
Candida albicans; DSM11949, DSM strain 11949, 48 h
  MIC: 0.25 µg/mL (≈ 0.47 µM)
Candida albicans; strain 98-St-00799, 48 h
  MIC: < 0.015 µg/mL
Cholesterol levels; 4 h
  Cholesterol Levels (mean ± SEM): 85.1 ± 7 mg/dL
Cholesterol levels; 8 h
  Cholesterol Levels (mean ± SEM): 85.1 ± 5.4 mg/dL
Cholesterol levels; 12 h
  Cholesterol Levels (mean ± SEM): 77.3 ± 1.9 mg/dL
Cholesterol levels; 16 h
  Cholesterol Levels (mean ± SEM): 77.3 ± 4.6 mg/dL
Cholesterol levels; 20 h
  Cholesterol Levels (mean ± SEM): 69.6 ± 2.7 mg/dL
Cholesterol levels; 24 h
  Cholesterol Levels (mean ± SEM): 69.6 ± 1.5 mg/dL
Cryptococcus neoformans; DSM11959, DSM strain 11959, 48 h
  MIC: 0.03 µg/mL (≈ 0.0565 µM)
Cryptococcus neoformans; DSM11960, DSM strain 11960, 48 h
  MIC: 0.125 µg/mL (≈ 0.235 µM)
P450 3A
  IC50: 0.79 µM
Issatchenkia orientalis; DSM11956, DSM strain 11956, 48 h
  MIC: 0.5 µg/mL (≈ 0.941 µM)
Issatchenkia orientalis; DSM11958, DSM strain 11958, 48 h
  MIC: 2 µg/mL (≈ 3.76 µM)
Testosterone levels; single oral 50 mg/kg
  Testosterone levels (mean ± SEM): 2.5 ± 0.5 nmol/L
Testosterone levels; single oral 100 mg/kg
  Testosterone levels (mean ± SEM): 1.3 ± 0.2 nmol/L
Testosterone levels; single oral 200 mg/kg, 4 h
  Testosterone levels (mean ± SEM), time course: 3.4 ± 0.5 nmol/L
Testosterone levels; single oral 200 mg/kg
  Testosterone levels (mean ± SEM): 1.4 ± 0.4 nmol/L
Testosterone levels; single oral 200 mg/kg, 8 h
  Testosterone levels (mean ± SEM), time course: 8.6 ± 2.0 nmol/L
Testosterone levels; single oral 200 mg/kg, 12 h
  Testosterone levels (mean ± SEM), time course: 5.6 ± 1.1 nmol/L
Testosterone levels; single oral 200 mg/kg, 16 h
  Testosterone levels (mean ± SEM), time course: 5.5 ± 0.9 nmol/L
Testosterone levels; single oral 200 mg/kg, 20 h
  Testosterone levels (mean ± SEM), time course: 5.2 ± 1.1 nmol/L
Testosterone levels; single oral 200 mg/kg, 24 h
  Testosterone levels (mean ± SEM), time course: 6.0 ± 1.0 nmol/L
Testosterone levels; single oral 400 mg/kg
  Testosterone levels (mean ± SEM): 0.7 ± 0.2 nmol/L
Testosterone levels; single oral 600 mg/kg
  Testosterone levels (mean ± SEM): 1.6 ± 0.3 nmol/L

## CC(=O)N1CCN(c2ccc(OCC3COC(Cn4ccnc4)(c4ccc(Cl)cc4Cl)O3)cc2)CC1 (stereo not drawn) [2S45]
Plasma corticosterone; 4 h
  effect on plasma corticosterone (FIG. 1): little effect

## Clc1ccc(C2(Cn3ccnc3)OCC(COc3ccc(N4CCNCC4)cc3)O2)c(Cl)c1 (stereo not drawn) [DAK, deacetylated ketoconazole]
Succinate dehydrogenase
  IC50: 350 µM
